Molecular target: full-length ATR (Homo sapiens (Human), UniProt Q13535)
Experiment: ATR Inhibition Assay (radioactive-phosphate incorporation)
Format: biochemical
Conditions: read-out: ATR Ki
Procedure, shortened: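 Full-length human ATR (5 nM) was assayed at 25 °C in 50 mM Tris/HCl pH 7.5, 10 mM MgCl2, 1 mM DTT, with 10 μM [γ-33P]ATP and 800 μM peptide, after 10-min compound preincubation. Reactions were stopped after 24 h, captured on phosphocellulose and counted; Ki(app) came from non-linear regression of initial rates.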

Sequence of full-length ATR (Q13535 whole entry): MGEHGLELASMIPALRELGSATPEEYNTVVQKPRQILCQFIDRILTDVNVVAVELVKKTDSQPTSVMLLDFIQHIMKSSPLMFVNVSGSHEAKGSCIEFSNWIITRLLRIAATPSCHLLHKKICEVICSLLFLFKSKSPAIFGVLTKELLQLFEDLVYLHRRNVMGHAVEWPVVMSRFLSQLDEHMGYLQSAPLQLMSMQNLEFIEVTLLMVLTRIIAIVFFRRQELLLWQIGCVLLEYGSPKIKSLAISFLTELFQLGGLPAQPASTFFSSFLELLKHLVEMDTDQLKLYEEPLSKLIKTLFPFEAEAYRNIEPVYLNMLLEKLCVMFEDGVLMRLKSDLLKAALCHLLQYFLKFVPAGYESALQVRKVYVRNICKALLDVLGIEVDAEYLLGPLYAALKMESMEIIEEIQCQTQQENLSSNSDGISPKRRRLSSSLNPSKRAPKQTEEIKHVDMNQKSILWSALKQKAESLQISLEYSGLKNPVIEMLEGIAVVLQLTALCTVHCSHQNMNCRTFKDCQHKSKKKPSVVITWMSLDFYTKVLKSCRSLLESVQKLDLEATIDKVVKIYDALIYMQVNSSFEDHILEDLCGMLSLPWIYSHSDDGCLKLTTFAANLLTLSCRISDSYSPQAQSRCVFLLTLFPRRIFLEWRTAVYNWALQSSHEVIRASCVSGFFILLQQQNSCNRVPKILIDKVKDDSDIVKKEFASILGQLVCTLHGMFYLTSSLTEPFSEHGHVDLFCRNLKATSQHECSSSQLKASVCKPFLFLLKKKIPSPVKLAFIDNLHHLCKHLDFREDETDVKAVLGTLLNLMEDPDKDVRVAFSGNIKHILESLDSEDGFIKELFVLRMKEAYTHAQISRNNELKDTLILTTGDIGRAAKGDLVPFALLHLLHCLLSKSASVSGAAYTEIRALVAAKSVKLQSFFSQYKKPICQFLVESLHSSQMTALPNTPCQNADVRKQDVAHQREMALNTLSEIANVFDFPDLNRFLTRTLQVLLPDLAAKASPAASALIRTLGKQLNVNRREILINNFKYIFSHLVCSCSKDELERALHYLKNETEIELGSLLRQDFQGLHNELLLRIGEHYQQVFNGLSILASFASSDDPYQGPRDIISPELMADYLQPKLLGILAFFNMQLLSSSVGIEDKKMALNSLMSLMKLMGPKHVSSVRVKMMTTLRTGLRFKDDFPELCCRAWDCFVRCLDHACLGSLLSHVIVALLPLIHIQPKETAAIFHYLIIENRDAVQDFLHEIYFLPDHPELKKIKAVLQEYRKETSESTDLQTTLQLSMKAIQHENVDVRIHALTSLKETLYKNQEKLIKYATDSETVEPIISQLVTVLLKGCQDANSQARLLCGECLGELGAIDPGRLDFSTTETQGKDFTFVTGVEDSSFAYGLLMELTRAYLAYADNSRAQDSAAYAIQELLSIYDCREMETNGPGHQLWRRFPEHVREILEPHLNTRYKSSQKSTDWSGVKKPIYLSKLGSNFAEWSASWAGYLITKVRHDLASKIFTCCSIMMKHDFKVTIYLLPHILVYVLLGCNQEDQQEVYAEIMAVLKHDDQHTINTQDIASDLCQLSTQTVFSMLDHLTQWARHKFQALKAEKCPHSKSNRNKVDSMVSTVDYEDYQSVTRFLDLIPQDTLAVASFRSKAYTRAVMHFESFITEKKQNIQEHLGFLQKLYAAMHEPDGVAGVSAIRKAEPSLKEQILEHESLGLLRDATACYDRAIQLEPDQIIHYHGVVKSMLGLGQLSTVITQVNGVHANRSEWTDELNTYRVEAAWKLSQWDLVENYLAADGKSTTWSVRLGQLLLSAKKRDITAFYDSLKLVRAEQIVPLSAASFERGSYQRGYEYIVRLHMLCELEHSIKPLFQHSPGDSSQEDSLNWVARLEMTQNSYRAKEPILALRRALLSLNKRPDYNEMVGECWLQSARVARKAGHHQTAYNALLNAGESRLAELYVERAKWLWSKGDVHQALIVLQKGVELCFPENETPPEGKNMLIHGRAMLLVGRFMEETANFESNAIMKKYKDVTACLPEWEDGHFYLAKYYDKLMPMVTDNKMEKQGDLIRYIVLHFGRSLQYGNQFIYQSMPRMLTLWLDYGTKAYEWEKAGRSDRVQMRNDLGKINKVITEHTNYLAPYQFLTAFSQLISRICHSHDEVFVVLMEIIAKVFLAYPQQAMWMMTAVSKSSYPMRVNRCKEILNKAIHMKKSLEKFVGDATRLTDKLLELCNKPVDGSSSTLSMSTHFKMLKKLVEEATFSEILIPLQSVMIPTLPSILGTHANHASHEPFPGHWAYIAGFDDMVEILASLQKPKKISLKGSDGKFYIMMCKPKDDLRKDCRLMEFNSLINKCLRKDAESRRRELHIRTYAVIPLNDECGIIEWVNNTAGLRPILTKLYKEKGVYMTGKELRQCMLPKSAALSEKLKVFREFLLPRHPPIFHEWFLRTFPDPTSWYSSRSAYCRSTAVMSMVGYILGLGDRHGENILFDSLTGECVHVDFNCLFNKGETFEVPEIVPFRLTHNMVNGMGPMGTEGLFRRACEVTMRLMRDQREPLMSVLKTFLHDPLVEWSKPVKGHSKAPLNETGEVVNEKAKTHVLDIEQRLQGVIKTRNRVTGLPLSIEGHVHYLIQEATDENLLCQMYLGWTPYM

Row | Ki [µM] | Structure (SMILES)
1 | ≤ 0.01 | N#Cc1cc(C(=O)N2CCCNCC2)ccc1-c1cnc(N)c(C(=O)Nc2nc3ccccc3[nH]2)n1 [Compound V-2]
2 | ≤ 0.01 | CN(C)C(=O)c1ccc(-c2cnc(N)c(-c3nnc(-c4ccccc4)s3)n2)c(C#N)c1 [IVA-1, 4-[5-amino-6-(5-phenyl-1,3,4-thiadiazol-2-yl)pyrazin-2-yl]-3-cyano-N,N-dimethyl-benzamide]
3 | ≤ 0.01 | Cc1ccsc1-c1nnc(-c2nc(-c3ccc(S(=O)(=O)C(C)C)cc3)cnc2N)o1 [IA-276, 5-(4-isopropylsulfonylphenyl)-3-[5-(3-methyl-2-thienyl)-1,3,4-oxadiazol-2-yl]pyrazin-2-amine]
4 | 0.01 to 0.1 | Nc1ncc(-c2ccccc2O)nc1-c1nnc(-c2ccccc2)o1 [IA-61]
5 | 0.01 to 0.1 | CC(=O)Nc1ccccc1-c1cnc(N)c(-c2nnc(-c3ccccc3)o2)n1 [IA-267, N-(2-(5-amino-6-(5-phenyl-1,3,4-oxadiazol-2-yl)pyrazin-2-yl)phenyl)ethanamide]
6 | 0.01 to 0.1 | Cc1ccc2nc(-c3nc(-c4ccc(C(=O)N5CCC(N(C)C)CC5)cc4)cnc3N)[nH]c2c1 [III-2, (4-(5-amino-6-(6-methyl-1H-benzo[d]imidazol-2-yl)pyrazin-2-yl)phenyl)(4-(dimethylamino)piperidin-1-yl)methanone]
7 | 0.1 to 5 | CC(C)S(=O)(=O)c1ccc(-c2cnc(N)c(-c3nnc(C(=O)N4CCC(N)C4)o3)n2)cc1 (centres unmarked) [IA-133, [5-[3-amino-6-(4-isopropylsulfonylphenyl)pyrazin-2-yl]-1,3,4-oxadiazol-2-yl]-(3-aminopyrrolidin-1-yl)methanone]
8 | ≤ 0.01 | N#Cc1cc(C(=O)N2CCCNCC2)ccc1-c1cnc(N)c(-c2nnc(-c3cccs3)o2)n1 [IA-152, 2-(5-amino-6-(5-(thiophen-2-yl)-1,3,4-oxadiazol-2-yl)pyrazin-2-yl)-5-(1,4-diazepane-1-carbonyl)benzonitrile]
9 | 0.01 to 0.1 | Nc1ncc(-c2ccccc2CO)nc1C(=O)Nc1ccccc1 [Compound I-19, 3-amino-6-(2-(hydroxymethyl)phenyl)-N-phenylpyrazine-2-carboxamide]

Further lines, the molecule ahead of its results:

Row | Structure (SMILES) | Ki [µM]
10 | CC(C)S(=O)(=O)c1ccc(-c2cnc(N)c(-c3nnc(-c4ccc(CNCCN(C)C)cc4)o3)n2)cc1 [IA-225, N-[[4-[5-[3-amino-6-(4-isopropylsulfonylphenyl)pyrazin-2-yl]-1,3,4-oxadiazol-2-yl]phenyl]methyl]-N′,N′-dimethyl-ethane-1,2-diamine] | 0.01 to 0.1
11 | Nc1ncc(-c2cccnc2)nc1C(=O)Nc1cccc(F)c1 [Compound I-103, 3-amino-N-(3-fluorophenyl)-6-(pyridin-3-yl)pyrazine-2-carboxamide] | 0.01 to 0.1
12 | COc1ccc(-c2cnc(N)c(-c3nnc(-c4ccccc4)o3)n2)cn1 [IA-117, 5-(6-methoxy-3-pyridyl)-3-(5-phenyl-1,3,4-oxadiazol-2-yl)pyrazin-2-amine] | 0.1 to 5
13 | CC(C)S(=O)(=O)c1ccc(-c2cnc(N)c(-c3nnc(NC4CCNCC4)o3)n2)cc1 [IA-318, 5-[3-amino-6-(4-isopropylsulfonylphenyl)pyrazin-2-yl]-N-(4-piperidyl)-1,3,4-oxadiazol-2-amine] | 0.1 to 5
14 | CC(C)S(=O)(=O)c1ccc(-c2cnc(N)c(-c3nnc(N4CCCC(N)C4)o3)n2)cc1 (centres unmarked) [IA-206, 3-[5-(3-amino-1-piperidyl)-1,3,4-oxadiazol-2-yl]-5-(4-isopropylsulfonylphenyl)pyrazin-2-amine] | 0.1 to 5
15 | CC(C)(C)OC(=O)N1CCCN(C(=O)c2ccc(-c3cnc(N)c(-c4nnc(-c5ccccc5)o4)n3)c(C#N)c2)CC1 [IA-19] | ≤ 0.01
16 | CC(C)S(=O)(=O)c1ccccc1-c1cnc(N)c(-c2nnc(-c3ccccc3)o2)n1 [IA-121, 5-(2-isopropylsulfonylphenyl)-3-(5-phenyl-1,3,4-oxadiazol-2-yl)pyrazin-2-amine] | 0.1 to 5
17 | Nc1ncc(-c2ccc(C(=O)N3CCCOCC3)cc2)nc1-c1nnc(-c2ccccc2)o1 [IA-15] | ≤ 0.01

— US10479784B2, “Substituted pyrazin-2-amines as inhibitors of ATR kinase” (Vertex Pharmaceuticals Incorporated, priority 2008, dated 2019)
